Data from article PMC12481576, “Barbituric Acid Derivatives as Covalent Inhibitors of Leishmania braziliensis Dihydroorotate Dehydrogenase” (Journal of Medicinal Chemistry, 2025).
Read-outs that look alike come from different tables or passages of the source.

Assays:
[1] = target: LbDHODH (Leishmania braziliensis, UniProt E9AI53); assay: biochemical; settings: for IC50: LbDHODH
Procedure: To assess the ability of compounds 2a–2i to inhibit LbDHODH via covalent bond formation with Cys^131, we initially screened them at a concentration of 100 μM under two conditions: with and without a 4-h preincubation with the enzyme.
The experiments were performed in a 96-well microplate reader (SpectraMax Plus 384, Molecular Devices, USA), containing the […] of the buffer 60 mM DCIP, 50 mM Tris pH 8.15, 150 mM KCl, 0.1% Triton X-100, 50 μM DHO and 10 μM of LbDHODH at 165 nM. The reaction was monitored every 3 s at 610 nm over a period of 60 s, in triplicate, for the control and each concentration of the inhibitor. All assays were performed without incubation (0h) and with 4-h preincubation of the inhibitor with LbDHODH, using 5% DMSO (v/v) as control. […]. […] The resulting kobs values were plotted as a function of inhibitor concentration, and the data in the initial linear region was fit to determine the slope, which is kinact/KI. All regressions were performed with GraphPad Prism 9.

[2] = target: T1, HsDHODH (Homo sapiens, UniProt Q02127); assay: Selectivity assay: HsDHODH single-dose inhibition (DCIP reduction); format: biochemical
T1 construct: made in house
T1 sequence (Q02127 whole entry): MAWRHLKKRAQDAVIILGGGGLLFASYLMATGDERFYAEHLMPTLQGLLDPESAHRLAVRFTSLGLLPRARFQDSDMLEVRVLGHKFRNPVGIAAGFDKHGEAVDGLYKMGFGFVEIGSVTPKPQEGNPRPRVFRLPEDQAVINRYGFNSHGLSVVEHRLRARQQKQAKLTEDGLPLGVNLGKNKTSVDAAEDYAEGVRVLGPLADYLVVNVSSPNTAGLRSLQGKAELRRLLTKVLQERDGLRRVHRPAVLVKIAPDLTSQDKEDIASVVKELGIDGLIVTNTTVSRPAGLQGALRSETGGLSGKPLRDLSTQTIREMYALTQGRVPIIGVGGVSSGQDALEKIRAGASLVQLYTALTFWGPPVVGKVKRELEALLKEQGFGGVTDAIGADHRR
Procedure: […]. This finding highlights the potential of barbituric acid derivatives as selective inhibitors of LbDHODH.
Human DHODH expression and purification were conducted following a protocol previously established in our laboratory. The purification was carried out by affinity chromatography on a Ni-NTA Agarose column (Qiagen[…] Cat. No. 30210). […] The reaction was performed in triplicate, initiated by adding 195 μL of reaction buffer to 5 μL of HsDHODH protein solution for a final concentration of 20 nM enzyme. As a blank, 195 μL of reaction buffer was added to 5 μL of Buffer A. The reaction was monitored at 610 nm every 3 s over 60 s. As a control, 5 μL of enzyme was added to 195 μL of reaction medium without compound. Enzymatic velocity was calculated, and the percentage of relative enzymatic activity was determined relative to the control.

[3] = test system: Leishmania braziliensis promastigotes; assay: Leishmanicidal activity, promastigote growth (SYBR Green, 72 h); format: cell-based, Leishmania (V.) braziliensis (MHOM/BR/1975/M2904); settings: Leishmania braziliensis, L. braziliensis promastigotes, max 200 μM
Procedure: The cultures were adjusted to 4 × 10^6 parasites per mL, and 50 μL of each culture was added on a test plate with 384 wells (Corning, #CLS3658), along with the controls and compounds to be tested. Previously diluted compounds in DMSO were added to plates in decreasing concentrations, with a maximum concentration of 200 μM. Parasites were exposed to a final concentration of DMSO in various dilutes (final = 0.5%), and the culture medium was used as the control for the experiment. […] After adding the lysis buffer, the plates were incubated in the dark for 2 h with gentle shaking. The readings were done using a SpectraMax M3 reader (excitation at 485 nm and emission at 535 nm).

[4] = test system: THP-1 cells; assay: Cell viability / cytotoxicity assay (PrestoBlue, 72 h); format: cell-based; settings: THP-1 cell line, 72 h, max 200 μM
Procedure: (§1) THP-1 cells (American Type Cell Collection, #TIB-202) were acquired in 2019 and stored frozen in liquid nitrogen. The cells were then maintained in RPMI 1640 (Thermo Fisher Scientific, #S31800–022) at 37 °C in a 5% CO2 atmosphere and routinely tested for Mycoplasma contamination by PCR using the primers 5′-[…] and 5′-[…]. To test the toxicity of compounds, 5000 cells were added to 96-well plates with a final volume of 80 μL centrifuged at 400g for 2 min and incubated with 150 ng/mL of phorbol myristate acetate (Merck, #P8139) for 48 h. The medium was replaced, and after 24 h, the compounds were added and tested at decreasing concentrations starting from 200 μM (10 μL/well). After 72 h of incubation, 10 μL of PrestoBlue Cell Viability Reagent (Thermo Fisher Scientific, #A13262) was added per well. After adding the reagent, the cells were incubated for 2 h at 37 °C in a 5% CO2 atmosphere, and fluorescence readings were performed using the SpectraMax M3 reader (excitation at 560 nm and emission at 590 nm).

[5] = as above; format: cell-based; settings: human; THP-1 cell line, 72 h, max 200 μM; read-out: CC50
Procedure: as §1

[6] = 0 h, pH 8.15, read-out: LbDHODH Activity±SD (%)
[7] = 4 h, pH 8.15, read-out: LbDHODH Activity±SD (%)
[8] = read-out: Single dose (0h) % activity
[9] = read-out: Single dose (4h) % activity

LbDHODH, sequence (E9AI53 entry or part of it): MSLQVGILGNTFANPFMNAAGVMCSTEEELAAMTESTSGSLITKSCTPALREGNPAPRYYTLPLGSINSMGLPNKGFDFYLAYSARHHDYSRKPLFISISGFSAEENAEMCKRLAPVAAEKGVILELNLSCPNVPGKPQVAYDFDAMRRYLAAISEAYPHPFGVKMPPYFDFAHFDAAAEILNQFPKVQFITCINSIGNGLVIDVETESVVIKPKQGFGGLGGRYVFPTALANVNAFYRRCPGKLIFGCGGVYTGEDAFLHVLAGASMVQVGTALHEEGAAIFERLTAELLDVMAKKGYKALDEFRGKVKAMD

## O=C1NC(=O)C(=Cc2ccc(-c3ccccc3)cc2)C(=O)N1 [2f, 5-([1,1′-Biphenyl]-4-ylmethylene)pyrimidine-2,4,6(1H,3H,5H)-trione]
[1]; [6]
  activity at 0.024414 µM: 97 ± 2%
  activity at 0.048828 µM: 93 ± 2%
  activity at 0.0976562 µM: 98 ± 2%
  activity at 0.195312 µM: 97 ± 2%
  activity at 0.390625 µM: 91 ± 2%
  activity at 0.78125 µM: 94 ± 2%
  activity at 1.5625 µM: 100 ± 2%
  activity at 3.125 µM: 94 ± 2%
  activity at 6.25 µM: 96 ± 2%
  activity at 12.5 µM: 86 ± 2%
  activity at 25 µM: 83 ± 2%
  activity at 50 µM: 71 ± 2%
  activity at 100 µM: 62 ± 2%
  activity at 200 µM: 43 ± 1%
[1]; [7]
  activity at 0.024414 µM: 103 ± 3%
  activity at 0.048828 µM: 104 ± 3%
  activity at 0.0976562 µM: 104 ± 3%
  activity at 0.195312 µM: 95.5 ± 2%
  activity at 0.390625 µM: 95.9 ± 2%
  activity at 0.78125 µM: 85.6 ± 2%
  activity at 1.5625 µM: 83.3 ± 2%
  activity at 3.125 µM: 73.6 ± 2%
  activity at 6.25 µM: 53 ± 1%
  activity at 12.5 µM: 41 ± 1%
  activity at 25 µM: 25.2 ± 0.6%
  activity at 50 µM: 10 ± 0.2%
  activity at 100 µM: 3.8 ± 0.1%
  activity at 200 µM: 0.95 ± 0.02%
[1]; IC50 0 h, without preincubation
  IC50: 160 ± 10 µM
[1]; IC50 4 h, 4-h preincubation
  IC50: 7.7 ± 0.3 µM
[1]; [8]
  activity at 100 µM: 62 ± 2%
[1]; [9]
  activity at 100 µM: 3.8 ± 0.1%
[1]; read-out: enzyme inhibition
  inhibition at 100 µM: 96.2%
[2]; [8]
  activity at 100 µM: 103 ± 12%
[2]; [9]
  activity at 100 µM: 78 ± 8%
[3]
  EC50: 19 ± 14 µM
[4]
  CC50: strong cytotoxicity
[5]
  CC50 at 72 h: 12 ± 3 µM
